# In patent publication EP4803081A2:
# Like-named read-outs stand apart in the source and are kept apart here.
# Details: ester bond
smiles,measurement,setting,value
CO[C@@H](C)c1ncc(N2CCN(C3CC3)CC2)cc1-c1c2c3cc(ccc3n1CC(F)(F)F)-c1csc(n1)C[C@H](NC(=O)OC(C)(C)C)C(=O)N1CCC[C@H](N1)C(=O)OCC(C)(C)C2,"ring closure, yield of all isomers","from CO[C@@H](C)c1ncc(N2CCN(C3CC3)CC2)cc1-c1c(CC(C)(C)CO)c2cc(-c3csc(C[C@H](NC(=O)OC(C)(C)C)C(=O)N4CCC[C@@H](C(=O)O)N4)n3)ccc2n1CC(F)(F)F, EDCI/HOBt/DIPEA, DCM, 21.07 mM, 25.0 °C, 16.0 h",51%
CCn1c(-c2cc(N3CCN(C4CC4)CC3)cnc2[C@H](C)OC)c2c3cc(ccc31)C1=CCCN(C1)C[C@H](NC(=O)OC(C)(C)C)C(=O)N1CCC[C@H](N1)C(=O)OCC(C)(C)C2,"ring closure, yield of all isomers","from CCn1c(-c2cc(N3CCN(C4CC4)CC3)cnc2[C@H](C)OC)c(CC(C)(C)CO)c2cc(C3=CCCN(C[C@H](NC(=O)OC(C)(C)C)C(=O)N4CCC[C@@H](C(=O)O)N4)C3)ccc21, EDCI/HOBt/DIPEA, DCM, 10.0 mM, 35.0 °C, 16.0 h",53%
CCn1c(-c2cc(N3CCN4CCOC[C@@H]4C3)cnc2[C@H](C)OC)c2c3cc(ccc31)C1=CCCN(C1)C[C@H](NC(=O)OC(C)(C)C)C(=O)N1CCC[C@H](N1)C(=O)OCC(C)(C)C2,"ring closure, yield of all isomers","from CCn1c(-c2cc(N3CCN4CCOC[C@@H]4C3)cnc2[C@H](C)OC)c(CC(C)(C)CO)c2cc(C3=CCCN(C[C@H](NC(=O)OC(C)(C)C)C(=O)N4CCC[C@@H](C(=O)O)N4)C3)ccc21, EDC·HCl/HOBt/DIPEA, DCM, 11.3 mM, 0.0 °C, 2.0 h",67%
CO[C@@H](C)c1ncc(N2CCN(C3CC3)CC2)cc1-c1c2c3cc(ccc3n1CC(F)(F)F)N1CCO[C@@H](C[C@H](NC(=O)OC(C)(C)C)C(=O)N3CCC[C@H](N3)C(=O)OCC(C)(C)C2)C1,"ring closure, yield of all isomers","from CO[C@@H](C)c1ncc(N2CCN(C3CC3)CC2)cc1-c1c(CC(C)(C)CO)c2cc(N3CCO[C@@H](C[C@H](NC(=O)OC(C)(C)C)C(=O)N4CCC[C@@H](C(=O)O)N4)C3)ccc2n1CC(F)(F)F, EDCI/HOBt/DIPEA, DCM, 9.22 mM, 25.0 °C, 16.0 h",64%
CCn1c(-c2cc(N3CCN4CCC[C@@H]4C3)cnc2[C@H](C)OC)c2c3cc(ccc31)-c1cccc(c1)C[C@H](NC(=O)OC(C)(C)C)C(=O)N1CCC[C@H](N1)C(=O)OCC(C)(C)C2,"ring closure, yield of all isomers","from CCn1c(-c2cc(N3CCN4CCC[C@@H]4C3)cnc2[C@H](C)OC)c(CC(C)(C)CO)c2cc(-c3cccc(C[C@H](NC(=O)OC(C)(C)C)C(=O)N4CCC[C@@H](C(=O)O)N4)c3)ccc21, EDCI/HOBt/DIPEA, DCM, 16.7 mM, 25.0 °C, 16.0 h",42%
CO[C@@H](C)c1ncc(N2CCN3CCCC[C@@H]3C2)cc1-c1c2c3cc(ccc3n1CC(F)(F)F)-c1cccc(c1)C[C@H](NC(=O)OC(C)(C)C)C(=O)N1CCC[C@H](N1)C(=O)OCC(C)(C)C2,"ring closure, yield of all isomers","from CO[C@@H](C)c1ncc(N2CCN3CCCC[C@@H]3C2)cc1-c1c(CC(C)(C)CO)c2cc(-c3cccc(C[C@H](NC(=O)OC(C)(C)C)C(=O)N4CCC[C@@H](C(=O)O)N4)c3)ccc2n1CC(F)(F)F, EDCI/HOBt/DIPEA, DCM, 12.85 mM, 0.0 °C, 16.0 h",65%
CCn1c(-c2cc(N3CCN4CCCC[C@@H]4C3)cnc2[C@H](C)OC)c2c3cc(ccc31)-c1cccc(c1)C[C@H](NC(=O)OC(C)(C)C)C(=O)N1CCC[C@H](N1)C(=O)OCC(C)(C)C2,"ring closure, yield of all isomers","from CCn1c(-c2cc(N3CCN4CCCC[C@@H]4C3)cnc2[C@H](C)OC)c(CC(C)(C)CO)c2cc(-c3cccc(C[C@H](NC(=O)OC(C)(C)C)C(=O)N4CCC[C@@H](C(=O)O)N4)c3)ccc21, EDCI/HOBt/DIPEA, DCM, 5.81 mM, 25.0 °C, 16.0 h",34%
CCn1c(-c2cccnc2[C@H](C)OC)c2c3cc(ccc31)C1=CCCN(C1)CC(NC(=O)OC(C)(C)C)C(=O)N1CCC[C@H](N1)C(=O)OCC(C)(C)C2 (some centres unmarked),"ring closure, yield of all isomers","from CCn1c(-c2cccnc2[C@H](C)OC)c(CC(C)(C)CO)c2cc(C3=CCCN(CC(NC(=O)OC(C)(C)C)C(=O)N4CCC[C@@H](C(=O)O)N4)C3)ccc21, EDCI/HOBt/DIPEA, DCM, 7.14 mM, 30.0 °C, 16.0 h",40%
CCn1c(-c2cccnc2[C@H](C)OC)c2c3cc(ccc31)N1CCO[C@@H](C[C@H](NC(=O)OCc3ccccc3)C(=O)N3CCC[C@H](N3)C(=O)OCC(C)(C)C2)C1,"ring closure, yield of all isomers","from CCn1c(-c2cccnc2[C@H](C)OC)c(CC(C)(C)CO)c2cc(N3CCO[C@@H](C[C@H](NC(=O)OCc4ccccc4)C(=O)N4CCC[C@@H](C(=O)O)N4)C3)ccc21, EDCI/HOBt/DIPEA, DCM, 12.75 mM, 25.0 °C, 16.0 h",66%
CO[C@@H](C)c1ncc(N2CCN(C3CC3)CC2)cc1-c1c2c3cc(ccc3n1CC(F)(F)F)-c1cccc(c1)C[C@H](NC(=O)OC(C)(C)C)C(=O)N1CCC[C@H](N1)C(=O)OCC(C)(C)C2,"ring closure, yield of all isomers","from CO[C@@H](C)c1ncc(N2CCN(C3CC3)CC2)cc1-c1c(CC(C)(C)CO)c2cc(-c3cccc(C[C@H](NC(=O)OC(C)(C)C)C(=O)N4CCC[C@@H](C(=O)O)N4)c3)ccc2n1CC(F)(F)F, EDCI/HOBt/DIPEA, DCM, 108.7 mM, 25.0 °C, 16.0 h",79%
CCn1c(-c2cc(N3CCN4CCCC[C@@H]4C3)cnc2[C@H](C)OC)c2c3cc(ccc31)-c1csc(n1)C[C@H](NC(=O)OC(C)(C)C)C(=O)N1CCC[C@H](N1)C(=O)OCC(C)(C)C2,"ring closure, yield of all isomers","from CCn1c(-c2cc(N3CCN4CCCC[C@@H]4C3)cnc2[C@H](C)OC)c(CC(C)(C)CO)c2cc(-c3csc(C[C@H](NC(=O)OC(C)(C)C)C(=O)N4CCC[C@@H](C(=O)O)N4)n3)ccc21, EDCI/HOBt/DIPEA, DCM, 11.3 mM, 25.0 °C, 16.0 h",49%
CC1(C)COC(=O)[C@@H]2CCCN(N2)C(=O)[C@@H](NC(=O)OC(C)(C)C)Cc2cccc(c2)-c2ccc3[nH]c(I)c(c3c2)C1,"ring closure, yield of all isomers","from CC(C)(CO)Cc1c(I)[nH]c2ccc(-c3cccc(C[C@H](NC(=O)OC(C)(C)C)C(=O)N4CCC[C@@H](C(=O)O)N4)c3)cc12, EDCI/HOBt/DIPEA, DCM, 12.77 mM, 0.0 °C, 16.0 h",79.8%
CCn1c(-c2cc(N3CCN(C(=O)OCc4ccccc4)CC3)cnc2[C@H](C)OC)c2c3cc(ccc31)-c1csc(n1)C[C@H](NC(=O)OC(C)(C)C)C(=O)N1CCC[C@H](N1)C(=O)OCC(C)(C)C2,"ring closure, yield of all isomers","from CCn1c(-c2cc(N3CCN(C(=O)OCc4ccccc4)CC3)cnc2[C@H](C)OC)c(CC(C)(C)CO)c2cc(-c3csc(C[C@H](NC(=O)OC(C)(C)C)C(=O)N4CCC[C@@H](C(=O)O)N4)n3)ccc21, EDCI/HOBt/DIPEA, MeCN, 10.34 mM, 25.0 °C, 16.0 h",55%
CCn1c(-c2cc(N3CCN4CCCC[C@@H]4C3)cnc2[C@H](C)OC)c2c3cc(ccc31)C1=CCCN(C1)C[C@H](NC(=O)OC(C)(C)C)C(=O)N1CCC[C@H](N1)C(=O)OCC(C)(C)C2,"ring closure, yield of all isomers","from CCn1c(-c2cc(N3CCN4CCCC[C@@H]4C3)cnc2[C@H](C)OC)c(CC(C)(C)CO)c2cc(C3=CCCN(C[C@H](NC(=O)OC(C)(C)C)C(=O)N4CCC[C@@H](C(=O)O)N4)C3)ccc21, EDC•HCl/HOBt/DIPEA, DCM, 11.3 mM, 0.0 °C, 16.0 h",66%
CCn1c(-c2cc(N3CCN4CCOC[C@@H]4C3)cnc2[C@H](C)OC)c2c3cc(ccc31)-c1csc(n1)C[C@H](NC(=O)OC(C)(C)C)C(=O)N1CCC[C@H](N1)C(=O)OCC(C)(C)C2,"ring closure, yield of all isomers","from CCn1c(-c2cc(N3CCN4CCOC[C@@H]4C3)cnc2[C@H](C)OC)c(CC(C)(C)CO)c2cc(-c3csc(C[C@H](NC(=O)OC(C)(C)C)C(=O)N4CCC[C@@H](C(=O)O)N4)n3)ccc21, EDCI/HOBt/DIPEA, DCM, 11.3 mM, 25.0 °C, 16.0 h",52%
CCn1c(-c2cc(N3CCN(C4CC4)CC3)cnc2[C@H](C)OC)c2c3cc(ccc31)N1CCO[C@@H](C[C@H](NC(=O)OCc3ccccc3)C(=O)N3CCC[C@H](N3)C(=O)OCC(C)(C)C2)C1,"ring closure, yield of all isomers","from CCn1c(-c2cc(N3CCN(C4CC4)CC3)cnc2[C@H](C)OC)c(CC(C)(C)CO)c2cc(N3CCO[C@@H](C[C@H](NC(=O)OCc4ccccc4)C(=O)N4CCC[C@@H](C(=O)O)N4)C3)ccc21, EDCI/HOBt/DIPEA, DCM, 11.25 mM, 30.0 °C, 16.0 h",50%
CCn1c(-c2cc(N3CCN4CCOC[C@@H]4C3)cnc2[C@H](C)OC)c2c3cc(ccc31)-c1cccc(c1)C[C@H](NC(=O)OC(C)(C)C)C(=O)N1CCC[C@H](N1)C(=O)OCC(C)(C)C2,"ring closure, yield of all isomers","from CCn1c(-c2cc(N3CCN4CCOC[C@@H]4C3)cnc2[C@H](C)OC)c(CC(C)(C)CO)c2cc(-c3cccc(C[C@H](NC(=O)OC(C)(C)C)C(=O)N4CCC[C@@H](C(=O)O)N4)c3)ccc21, EDCI/HOBt/DIPEA, DCM, 7.56 mM, 25.0 °C, 16.0 h",81%
CO[C@@H](C)c1ncc(N2CCN3CCOC[C@@H]3C2)cc1-c1c2c3cc(ccc3n1CC(F)(F)F)-c1cccc(c1)C[C@H](NC(=O)OC(C)(C)C)C(=O)N1CCC[C@H](N1)C(=O)OCC(C)(C)C2,"ring closure, yield of all isomers","from CO[C@@H](C)c1ncc(N2CCN3CCOC[C@@H]3C2)cc1-c1c(CC(C)(C)CO)c2cc(-c3cccc(C[C@H](NC(=O)OC(C)(C)C)C(=O)N4CCC[C@@H](C(=O)O)N4)c3)ccc2n1CC(F)(F)F, EDCI/HOBt/DIPEA, DCM, 5.34 mM, 25.0 °C, 16.0 h",98%
CCn1c(-c2cc(N3CCN4CCCC[C@@H]4C3)cnc2[C@H](C)OC)c2c3cc(ccc31)N1CCO[C@@H](C[C@H](NC(=O)OC(C)(C)C)C(=O)N3CCC[C@H](N3)C(=O)OCC(C)(C)C2)C1,"ring closure, yield of all isomers","from CCn1c(-c2cc(N3CCN4CCCC[C@@H]4C3)cnc2[C@H](C)OC)c(CC(C)(C)CO)c2cc(N3CCO[C@@H](C[C@H](NC(=O)OC(C)(C)C)C(=O)N4CCC[C@@H](C(=O)O)N4)C3)ccc21, EDCI/HOBt/DIPEA, DMF, 11.2 mM, 25.0 °C, 16.0 h",73%
CCn1c(-c2cccnc2[C@H](C)OC)c2c3cc(ccc31)-c1csc(n1)C[C@H](NC(=O)OC(C)(C)C)C(=O)N1CCC[C@H](N1)C(=O)OCC(C)(C)C2,"ring closure, yield of all isomers","from CCn1c(-c2cccnc2[C@H](C)OC)c(CC(C)(C)CO)c2cc(-c3csc(C[C@H](NC(=O)OC(C)(C)C)C(=O)N4CCC[C@@H](C(=O)O)N4)n3)ccc21, EDCI/HOBt/DIPEA, DCM, 12.65 mM, 25.0 °C, 16.0 h",81%
